{"source": "patent US12090149B2", "about": "“SMAD3 inhibitors” (Moexa Pharmaceuticals Limited, priority 2018, dated 2024)", "key": {"B16-F10 syngeneic model": {"tested_on": "B16-F10 syngeneic model", "assay": "Subcutaneous B16-F10 syngeneic model, tumor growth", "type": "in vivo, C57BL/6 mice", "description": "In order to evaluate the in vivo efficacy of SIS3 and novel compounds of the present invention, a study has been conducted in treatment of the subcutaneous B16-F10 syngeneic models.\n• Animal species and strain: C57BL/6 mice • History of treatment: Naive • Sex, age and weight: Female, 6-8 weeks • Breeder/supplier: Shanghai SLAC Laboratory Animal Co. Ltd • Adaptation: At least 7 days • Room: SPF Room • Room temperature: 20-26° C. • Room relative humidity: 40-70% • Light cycle: Fluorescent light for 12-hour light (08:00-20:00) and 12-hour dark • Animal hosting: 2-5 mice/cage each group • Food: Free access to food • Water: Free access to water (municipal tap water filtered by reverse osmosis or high-pressure sterilizer)\nB16-F10 cell was maintained at 37° C. under 5% CO2 in DMEM medium supplemented with 10% FBS and were subsequently cultured within 10 passages before inoculated into the mice.\nB16-F10 cells (3×10^5 in 100 μL of serum-free medium) were inoculated to each of C57BL/6 mice via s.c. under anesthesia by 3-4% isoflurane. Each group contains 15 mice.\nWhen average tumor volume reached 35-60 mm^3, 15 mice were randomized into group 6. The day of inoculation was denoted as day 0.\nTumor dimensions were measured on Day 4, 5, 6, 8, 11, 13, 15 and 18, after inoculation in 2 dimensions with calipers.\nWhen required, tumor volume was measured daily. The tumor volume (V) was calculated as follows: V=(length×width^2)/2.\nThe individual relative tumor volume (RTV) was calculated as follows: RTV=Vt/V0, where Vt was the volume on each day, and V0 was the volume at the beginning of the treatment.\nTumor growth inhibition (TGI), TGI=(1−(Ti−T0)/(Ci−C0))×100%; Ti and Ci as the mean tumor volumes of the treatment and control groups on the measurement day; T0 and C0 as the mean tumor volumes of the treatment and control groups on day 0\nResults were expressed as mean±S.E.M. Comparisons between two groups were made by Dunnett's multi-comparison test, p<0.05 were considered as significant."}, "CYP3A4": {"target": "CYP3A4 (Homo sapiens, UniProt P08684)", "sequence (P08684 whole entry)": "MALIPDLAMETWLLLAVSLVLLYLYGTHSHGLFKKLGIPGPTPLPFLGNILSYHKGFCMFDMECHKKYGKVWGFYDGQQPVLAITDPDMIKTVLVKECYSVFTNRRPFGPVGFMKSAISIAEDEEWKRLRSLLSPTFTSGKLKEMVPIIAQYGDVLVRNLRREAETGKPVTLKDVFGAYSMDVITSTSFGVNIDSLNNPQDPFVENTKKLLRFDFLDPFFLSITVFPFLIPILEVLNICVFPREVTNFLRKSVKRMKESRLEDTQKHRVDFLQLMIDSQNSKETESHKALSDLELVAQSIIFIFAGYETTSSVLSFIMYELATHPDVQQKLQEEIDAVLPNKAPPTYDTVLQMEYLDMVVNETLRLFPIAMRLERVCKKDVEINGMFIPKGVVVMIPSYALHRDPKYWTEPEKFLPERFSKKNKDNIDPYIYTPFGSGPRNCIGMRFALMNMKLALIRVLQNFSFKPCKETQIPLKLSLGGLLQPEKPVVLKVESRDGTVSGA", "assay": "Cytochrome P450 inhibition assay, human liver microsomes, CYP3A4", "conditions": "10 uM"}, "[1]": {"tested_on": "TGFβ/Smad Signaling Pathway SBE Reporter—HEK293 Cell Line", "assay": "TGFβ/Smad SBE reporter luciferase assay in HEK293 cells stimulated with human TGFβ1", "type": "cell-based", "conditions": "4 h compound, then TGFβ1 20 ng/ml ~18 h", "description": "• 1. TGFβ/Smad Signaling Pathway SBE Reporter—HEK293 Cell Line BPS Bioscience Catalog #: 60653 • 2. Human TGFβ1 (BPS Bioscience #90900-1) • 3. SIS3 (Sigma #S0447): inhibitor of TGFβ pathway. Prepare stock soln. in DMSO • 4. Growth medium: MEM medium (Invitrogen #11095-080)+10% FBS (ATCC #30-2020)+1% non-essential amino acids (Lonza #13-114E)+1 mM Na pyruvate (Lonza #13-115E)+1% Penicillin/Streptomycin (ATCC #30-2300)+400 μg/ml of Geneticin (Invitrogen #11811-031) • 5. Assay medium: MEM medium+0.5% FBS+1% non-essential amino acids+1 mM Na pyruvate+1% Pen/Strep • 6. 96-well tissue culture-treated white clear-bottom assay plate (Corning #3610) • 7. ONE-Step™ Luciferase Assay System (BPS, Cat. #60690)\nSBE reporter-HEK293 cells were harvested from culture in growth medium and seeded at a density of ˜10,000 cells per well into a white clear-bottom 96-well microplate in 100 μl of assay medium. The plate containing cells was incubated at 37° C. in a CO2 incubator. 24 h after seeding, cells were washed with 100 μL of assay buffer and treated with three-fold serial dilution of compounds in 50 μl assay medium. […]\nAfter 18 h of incubation, Luciferase assay was performed using ONE-Step™ Luciferase Assay System according to the protocol provided: 50 μl of ONE-Step™ Luciferase reagent was added per well and shook at room temperature for […]. Luminescence was measured using a luminometer."}, "[2]": {"conditions": "single agent, i.p. QD*3 weeks, SIS3 10 and 30 mg/kg, MO-00005 10, 30 and 100 mg/kg, vs vehicle"}}, "note": "Values joined by “and” are separate entries in the source; they are usually repeats but may differ in a detail not shown here. Identical values can stand only once. “Also recorded” adds a separate entry of the source."}
{"smiles": "COc1cc2c(cc1OC)CN(C(=O)/C=C/c1c(-c3ccccc3)n(C)c3ncccc13)CC2.Cl", "note": "[SIS3, reference compound]", "values": [{"measurement": "Tumor Sizes (mm3) Mean", "setting": "B16-F10 syngeneic model; 10 mg/kg q.d. * 3W i.p., Day 4 (estimated value)", "value": 0.87, "unit": "mm3"}, {"measurement": "Relative tumor volume Mean", "setting": "B16-F10 syngeneic model; 10 mg/kg q.d. * 3W i.p., Day 4, RTV=Vt/V0", "value": 0.04}, {"measurement": "Tumor Sizes (mm3) Mean", "setting": "B16-F10 syngeneic model; 10 mg/kg q.d. * 3W i.p., Day 5 (estimated value)", "value": "1.10 mm3 and 1.1 mm3"}, {"measurement": "Relative tumor volume Mean", "setting": "B16-F10 syngeneic model; 10 mg/kg q.d. * 3W i.p., Day 5, RTV=Vt/V0", "value": 0.05}, {"measurement": "Tumor Sizes (mm3) Mean", "setting": "B16-F10 syngeneic model; 10 mg/kg q.d. * 3W i.p., Day 6 (estimated value)", "value": 3.36, "unit": "mm3"}, {"measurement": "Relative tumor volume Mean", "setting": "B16-F10 syngeneic model; 10 mg/kg q.d. * 3W i.p., Day 6, RTV=Vt/V0", "value": 0.12}, {"measurement": "Tumor Sizes (mm3) Mean", "setting": "B16-F10 syngeneic model; 10 mg/kg q.d. * 3W i.p., Day 8", "value": 43.65, "unit": "mm3"}, {"measurement": "Relative tumor volume Mean", "setting": "B16-F10 syngeneic model; 10 mg/kg q.d. * 3W i.p., Day 8, RTV=Vt/V0", "value": 1.00}, {"measurement": "Tumor Sizes (mm3) Mean", "setting": "B16-F10 syngeneic model; 10 mg/kg q.d. * 3W i.p., Day 11", "value": 156.77, "unit": "mm3"}, {"measurement": "Relative tumor volume Mean", "setting": "B16-F10 syngeneic model; 10 mg/kg q.d. * 3W i.p., Day 11, RTV=Vt/V0", "value": 4.07}, {"measurement": "Tumor growth inhibition (%) TGI", "setting": "B16-F10 syngeneic model; 10 mg/kg q.d. * 3W i.p., Day 11, calculated based on tumor volume of Day 8", "value": 29, "unit": "%"}, {"measurement": "Tumor Sizes (mm3) Mean", "setting": "B16-F10 syngeneic model; 10 mg/kg q.d. * 3W i.p., Day 13", "value": 443.17, "unit": "mm3"}, {"measurement": "Relative tumor volume Mean", "setting": "B16-F10 syngeneic model; 10 mg/kg q.d. * 3W i.p., Day 13, RTV=Vt/V0", "value": 12.20}, {"measurement": "Tumor growth inhibition (%) TGI", "setting": "B16-F10 syngeneic model; 10 mg/kg q.d. * 3W i.p., Day 13, calculated based on tumor volume of Day 8", "value": 26, "unit": "%"}, {"measurement": "Tumor Sizes (mm3) Mean", "setting": "B16-F10 syngeneic model; 10 mg/kg q.d. * 3W i.p., Day 15", "value": 793.01, "unit": "mm3"}, {"measurement": "Relative tumor volume Mean", "setting": "B16-F10 syngeneic model; 10 mg/kg q.d. * 3W i.p., Day 15, RTV=Vt/V0", "value": 22.19}, {"measurement": "Tumor growth inhibition (%) TGI", "setting": "B16-F10 syngeneic model; 10 mg/kg q.d. * 3W i.p., Day 15, calculated based on tumor volume of Day 8", "value": 25, "unit": "%"}, {"measurement": "Tumor Sizes (mm3) Mean", "setting": "B16-F10 syngeneic model; 10 mg/kg q.d. * 3W i.p., Day 18", "value": 2209.13, "unit": "mm3"}, {"measurement": "Relative tumor volume Mean", "setting": "B16-F10 syngeneic model; 10 mg/kg q.d. * 3W i.p., Day 18, RTV=Vt/V0", "value": 62.21}, {"measurement": "Tumor growth inhibition (%) TGI", "setting": "B16-F10 syngeneic model; 10 mg/kg q.d. * 3W i.p., Day 18, calculated based on tumor volume of Day 8", "value": 21, "unit": "%"}, {"measurement": "Tumor Sizes (mm3) Mean", "setting": "B16-F10 syngeneic model; 30 mg/kg q.d. * 3W i.p., Day 4 (estimated value)", "value": 0.28, "unit": "mm3"}, {"measurement": "Relative tumor volume Mean", "setting": "B16-F10 syngeneic model; 30 mg/kg q.d. * 3W i.p., Day 4, RTV=Vt/V0", "value": 0.01}, {"measurement": "Tumor Sizes (mm3) Mean", "setting": "B16-F10 syngeneic model; 30 mg/kg q.d. * 3W i.p., Day 5 (estimated value)", "value": 0.46, "unit": "mm3"}, {"measurement": "Relative tumor volume Mean", "setting": "B16-F10 syngeneic model; 30 mg/kg q.d. * 3W i.p., Day 5, RTV=Vt/V0", "value": 0.01}, {"measurement": "Tumor Sizes (mm3) Mean", "setting": "B16-F10 syngeneic model; 30 mg/kg q.d. * 3W i.p., Day 6 (estimated value)", "value": 3.44, "unit": "mm3"}, {"measurement": "Relative tumor volume Mean", "setting": "B16-F10 syngeneic model; 30 mg/kg q.d. * 3W i.p., Day 6, RTV=Vt/V0", "value": 0.12}, {"measurement": "Tumor Sizes (mm3) Mean", "setting": "B16-F10 syngeneic model; 30 mg/kg q.d. * 3W i.p., Day 8", "value": 49.16, "unit": "mm3"}, {"measurement": "Relative tumor volume Mean", "setting": "B16-F10 syngeneic model; 30 mg/kg q.d. * 3W i.p., Day 8, RTV=Vt/V0", "value": 1.00}, {"measurement": "Tumor Sizes (mm3) Mean", "setting": "B16-F10 syngeneic model; 30 mg/kg q.d. * 3W i.p., Day 11", "value": "163.60 mm3 and 163.6 mm3"}, {"measurement": "Relative tumor volume Mean", "setting": "B16-F10 syngeneic model; 30 mg/kg q.d. * 3W i.p., Day 11, RTV=Vt/V0", "value": 3.98}, {"measurement": "Tumor growth inhibition (%) TGI", "setting": "B16-F10 syngeneic model; 30 mg/kg q.d. * 3W i.p., Day 11, calculated based on tumor volume of Day 8", "value": 28, "unit": "%"}, {"measurement": "Tumor Sizes (mm3) Mean", "setting": "B16-F10 syngeneic model; 30 mg/kg q.d. * 3W i.p., Day 13", "value": 379.84, "unit": "mm3"}, {"measurement": "Relative tumor volume Mean", "setting": "B16-F10 syngeneic model; 30 mg/kg q.d. * 3W i.p., Day 13, RTV=Vt/V0", "value": 9.22}, {"measurement": "Tumor Sizes (mm3) Mean", "setting": "B16-F10 syngeneic model; 30 mg/kg q.d. * 3W i.p., Day 15", "value": 786.37, "unit": "mm3"}, {"measurement": "Relative tumor volume Mean", "setting": "B16-F10 syngeneic model; 30 mg/kg q.d. * 3W i.p., Day 15, RTV=Vt/V0", "value": 23.71}, {"measurement": "Tumor Sizes (mm3) Mean", "setting": "B16-F10 syngeneic model; 30 mg/kg q.d. * 3W i.p., Day 18", "value": 2131.42, "unit": "mm3"}, {"measurement": "Relative tumor volume Mean", "setting": "B16-F10 syngeneic model; 30 mg/kg q.d. * 3W i.p., Day 18, RTV=Vt/V0", "value": 70.14}, {"measurement": "anti-tumor activity against the B16-F10 syngeneic model (in words)", "setting": "B16-F10 syngeneic model; [2]", "value": "anti-tumor response; also recorded: significant anti-tumor activity"}, {"measurement": "efficacy on tumor weight (in words)", "setting": "B16-F10 syngeneic model; [2]", "value": "significant efficacy on tumor weight"}, {"measurement": "CYP3A inhibition (HLM, midazolam substrate) Inhibition (%)", "setting": "CYP3A4; midazolam substrate", "value": 20.5499, "unit": "%"}, {"measurement": "CYP3A inhibition (HLM, testosterone substrate) Inhibition (%)", "setting": "CYP3A4; testosterone substrate", "value": 9.294, "unit": "%"}, {"measurement": "IC50", "setting": "[1]", "value": 2960, "unit": "nM"}]}
